Patent US20170231929A1, “METHOD FOR ENHANCING IMMUNE CELL FUNCTION AND METHOD FOR ASSESSING IMMUNE CELL MULTIFUNCTIONALITY” (NATIONAL UNIVERSITY CORPORATION OKAYAMA UNIVERSITY, priority 2014, published 2017)

System: CD8^+T cells
Assay: Multifunctionality of CD8^+T cells of primary lung cancer patients (stage I) after metformin treatment of PBMC (flow cytometer)
Type: cell-based, human
Settings: for Decrease, IFNγ 1-cytokine-producing cell / Decrease, IFNγ/IL-2 2-cytokine-producing cell / Decrease, IFNγ/TNFα 2-cytokine-producing cell / Decrease, IFNγ/TNFα/IL2 3-cytokine-producing cell / Increase, IFNγ 1-cytokine-producing cell / Increase, IFNγ/IL-2 2-cytokine-producing cell / Increase, IFNγ/TNFα 2-cytokine-producing cell / Increase, IFNγ/TNFα/IL2 3-cytokine-producing cell / No Change, IFNγ 1-cytokine-producing cell / No Change, IFNγ/IL-2 2-cytokine-producing cell / No Change, IFNγ/TNFα 2-cytokine-producing cell / No Change, IFNγ/TNFα/IL2 3-cytokine-producing cell: Cancer Patients (stage I)
Method: 1. Peripheral blood was obtained from a test subject, and PBMC was separated by a density-gradient centrifugation using a lymphocyte-separating reagent Ficoll-Paque® (GE Healthcare). 3 mL of Ficoll-Paque® was dispensed in a 15-mL tube. 8 mL of the peripheral blood was gently placed on the reagent. At this time, care should be taken not to mix Ficoll-Paque® with the peripheral blood. Centrifugation was performed at 400 g for 30 minutes, thereby separating PBMC. 2. The separated PBMC was preserved in a −150° C. freezer or liquid nitrogen using Bambang Car cell preservation liquid by adjusting the cell number to 2.0×10^6 cell/tube. 3. In the test, the thawed PBMC was cultured for 1 to 10 hours in the presence or absence of […]. The culture was performed using a 24-well plate, and the cell number was adjusted to about 5.0×10^5 cell/well. 4. The cells were collected after 1 to 10 hours, washed with medium, and cultured in the presence of a cell activation reagent (potent nanomolar activator of protein kinase C (PMA, 50 ng/mL), ionomycin (1 μM)) for 6 hours, thereby non-specifically stimulating T cells. At this time, BD Gorgi Stop™ was added to keep the produced cytokines inside the cells. 5. The cells were isolated and washed twice with a cell-staining buffer. First, staining of CD8, PD-1, Tim-3, which are molecules expressed on the T cell surface, was performed. In the staining, a staining buffer was added in an amount of 50 μL per sample. The culture was performed at 4° C. for 30 minutes. 6. The cells were collected and washed twice with a cell-staining buffer. 500 μL of BD Cytofix/Cytoperm was added and cultured at 4° C. for 30 minutes. 7. The cells were collected and washed twice with BD Perm/Wash™. Staining of cytokines IL-2, TNFα, and IFNγ was performed. In the staining, BD Perm/Wash™ was added in an amount of 50 μL per sample. The culture was performed at 4° C. for 30 minutes. 8. The cells were collected and washed twice with BD Perm/Wash™, and 200 μL of BD Perm/Wash™ was added. 9. Analysis was performed using a FACSCanto™ II flow cytometer (Becton, Dickinson and Company).
Among the PBMC treated with PMA/ionomycin in the method shown in (2) above, first, a gate was applied to CD8^+T cells using a FACSCanto™ II flow cytometer (Becton, Dickinson and Company), and then […] were removed by FSC-A and FSC-H. Using parameters FSC-A and SSC-A, a gate was applied to a lymphocyte group, thereby analyzing expression of PD-1 and Tim-3. Further, intracellular cytokines IFNγ, TNFα, and IL-2 were stained, and multifunctionality of CD8^+T cells contained in the PBMC was analyzed (FIG. 1).
Each PBMC obtained from 31 primary lung cancer patients (stage I) was cultured for an hour in the same manner as in (4) in the presence or absence of metformin. After metformin was removed, each resulting PBMC was analyzed. In a representative example, the CD8^+T cells untreated with metformin were determined to be 0.92%, and the CD8^+T cells treated with metformin were determined to be 1.44% (FIG. 3). Accordingly, it was judged that, in comparison with healthy subjects, multifunctionality of CD8^+T cells was increased by a metformin treatment in many cancer patients.
Among the cancer patients treated as above, the ratios of CD8^+T cells producing three kinds of cytokines (IFNγ/TNFα/IL-2), CD8^+T cells producing two kinds of cytokines (IFNγ/TNFα or IFNγ/IL-2), CD8^+T cells producing one kind of cytokine (IFNγ) with respect to the entire CD8^+T cells were calculated according to the same analysis as in (4), and shown in Table 2. The calculation results were compared between the metformin-untreated group (control) and the metformin-treated group (metformin).
This Example analyzed test results of recovery of multifunctionality of CD8^+T cells by metformin in 10 healthy subjects and 31 cancer patients (stage I) based on the results obtained by the method in Example 1. […]

[1] = total CD8^+T cells, cancer patients (stage I)

CN(C)C(=N)N=C(N)N [metformin]
38.7%: decrease in multifunctionality (three kinds of cytokines), share of patients [1]
8/31: Decrease, IFNγ/IL-2 2-cytokine-producing cell (PD-1+, Tim-3+, patients/total) | Decrease, IFNγ/TNFα 2-cytokine-producing cell (PD-1−, Tim-3+, patients/total)
13/31: No Change, IFNγ/TNFα/IL2 3-cytokine-producing cell (PD-1+, Tim-3+, patients/total) | Increase, IFNγ/IL-2 2-cytokine-producing cell (PD-1−, Tim-3+, patients/total) | Increase, IFNγ/TNFα 2-cytokine-producing cell (PD-1−, Tim-3+, patients/total) | No Change, IFNγ/TNFα/IL2 3-cytokine-producing cell (PD-1−, Tim-3+, patients/total) | Increase, IFNγ/TNFα 2-cytokine-producing cell (PD-1−, Tim-3−, patients/total) | Increase, IFNγ/TNFα/IL2 3-cytokine-producing cell (PD-1−, Tim-3−, patients/total) | Decrease, IFNγ 1-cytokine-producing cell (Total CD8T, patients/total) | Increase, IFNγ/IL-2 2-cytokine-producing cell (Total CD8T, patients/total) | No Change, IFNγ 1-cytokine-producing cell (Total CD8T, patients/total)
3/31: No Change, IFNγ/IL-2 2-cytokine-producing cell (Total CD8T, patients/total)
19/31: Increase, IFNγ 1-cytokine-producing cell (PD-1+, Tim-3+, patients/total) | Increase + No Change, IFNγ/TNFα/IL2 (Total CD8T, Patients (stage I), patients/total)
45.2%: increase in multifunctionality (three kinds of cytokines), share of patients [1]
4/31: No Change, IFNγ/TNFα 2-cytokine-producing cell (PD-1−, Tim-3−, patients/total) | No Change, IFNγ/TNFα/IL2 3-cytokine-producing cell (PD-1−, Tim-3−, patients/total) | No Change, IFNγ/TNFα 2-cytokine-producing cell (Total CD8T, patients/total)
61.3%: Increase + No Change, IFNγ/TNFα/IL2, share of patients (Total CD8T, Patients (stage I))
7/31: Decrease, IFNγ/TNFα/IL2 3-cytokine-producing cell (PD-1+, Tim-3+, patients/total) | No Change, IFNγ/IL-2 2-cytokine-producing cell (PD-1+, Tim-3−, patients/total) | No Change, IFNγ/TNFα/IL2 3-cytokine-producing cell (PD-1+, Tim-3−, patients/total) | No Change, IFNγ 1-cytokine-producing cell (PD-1−, Tim-3+, patients/total)
15/31: Decrease, IFNγ/IL-2 2-cytokine-producing cell (Total CD8T, patients/total) | Increase, IFNγ/TNFα 2-cytokine-producing cell (Total CD8T, patients/total)
1.44%: CD8^+T cells capable of simultaneously producing IFNγ, TNFα and IL-2, treated with metformin (primary lung cancer patients (stage I), representative example, FIG. 3, untreated with metformin 0.92%)
10/31: Decrease, IFNγ 1-cytokine-producing cell (PD-1+, Tim-3+, patients/total) | Decrease, IFNγ 1-cytokine-producing cell (PD-1+, Tim-3−, patients/total) | Decrease, IFNγ/TNFα 2-cytokine-producing cell (PD-1+, Tim-3−, patients/total) | Decrease, IFNγ/TNFα/IL2 3-cytokine-producing cell (PD-1+, Tim-3−, patients/total) | Increase, IFNγ/TNFα 2-cytokine-producing cell (PD-1+, Tim-3−, patients/total) | No Change, IFNγ 1-cytokine-producing cell (PD-1+, Tim-3−, patients/total) | Increase, IFNγ 1-cytokine-producing cell (PD-1−, Tim-3+, patients/total) | No Change, IFNγ/TNFα 2-cytokine-producing cell (PD-1−, Tim-3+, patients/total)
16/31: Decrease, IFNγ 1-cytokine-producing cell (PD-1−, Tim-3−, patients/total)
9/31: Decrease, IFNγ/TNFα 2-cytokine-producing cell (PD-1+, Tim-3+, patients/total) | Increase, IFNγ/IL-2 2-cytokine-producing cell (PD-1+, Tim-3+, patients/total) | Decrease, IFNγ/IL-2 2-cytokine-producing cell (PD-1−, Tim-3+, patients/total) | No Change, IFNγ/IL-2 2-cytokine-producing cell (PD-1−, Tim-3+, patients/total) | Increase, IFNγ 1-cytokine-producing cell (PD-1−, Tim-3−, patients/total)
14/31: No Change, IFNγ/IL-2 2-cytokine-producing cell (PD-1+, Tim-3+, patients/total) | Increase, IFNγ/TNFα/IL2 3-cytokine-producing cell (PD-1+, Tim-3−, patients/total) | Decrease, IFNγ 1-cytokine-producing cell (PD-1−, Tim-3+, patients/total) | Decrease, IFNγ/TNFα 2-cytokine-producing cell (PD-1−, Tim-3−, patients/total) | Decrease, IFNγ/TNFα/IL2 3-cytokine-producing cell (PD-1−, Tim-3−, patients/total) | Increase, IFNγ/TNFα/IL2 3-cytokine-producing cell (Total CD8T, patients/total)
5/31: Increase, IFNγ 1-cytokine-producing cell (Total CD8T, patients/total) | No Change, IFNγ/TNFα/IL2 3-cytokine-producing cell (Total CD8T, patients/total)
2/31: No Change, IFNγ 1-cytokine-producing cell (PD-1+, Tim-3+, patients/total) | No Change, IFNγ/IL-2 2-cytokine-producing cell (PD-1−, Tim-3−, patients/total)
increased: multifunctionality of CD8^+T cells by a metformin treatment (many cancer patients, in comparison with healthy subjects)
17/31: Decrease, IFNγ/IL-2 2-cytokine-producing cell (PD-1−, Tim-3−, patients/total)
6/31: Decrease, IFNγ/TNFα/IL2 3-cytokine-producing cell (PD-1−, Tim-3+, patients/total) | No Change, IFNγ 1-cytokine-producing cell (PD-1−, Tim-3−, patients/total)
11/31: Increase, IFNγ/TNFα 2-cytokine-producing cell (PD-1+, Tim-3+, patients/total) | Increase, IFNγ/TNFα/IL2 3-cytokine-producing cell (PD-1+, Tim-3+, patients/total) | No Change, IFNγ/TNFα 2-cytokine-producing cell (PD-1+, Tim-3+, patients/total) | Increase, IFNγ 1-cytokine-producing cell (PD-1+, Tim-3−, patients/total) | No Change, IFNγ/TNFα 2-cytokine-producing cell (PD-1+, Tim-3−, patients/total)
12/31: Decrease, IFNγ/IL-2 2-cytokine-producing cell (PD-1+, Tim-3−, patients/total) | Increase, IFNγ/IL-2 2-cytokine-producing cell (PD-1+, Tim-3−, patients/total) | Increase, IFNγ/TNFα/IL2 3-cytokine-producing cell (PD-1−, Tim-3+, patients/total) | Increase, IFNγ/IL-2 2-cytokine-producing cell (PD-1−, Tim-3−, patients/total) | Decrease, IFNγ/TNFα 2-cytokine-producing cell (Total CD8T, patients/total) | Decrease, IFNγ/TNFα/IL2 3-cytokine-producing cell (Total CD8T, patients/total)
